Measured values taken from US9469645B2, “Compounds and compositions for the treatment of parasitic diseases” (Novartis AG, priority 2009, dated 2016).

Experiments:
W2 strain [1] = test: parasite proliferation assay in infected red blood cells (SYBR Green I), W2 strain; format: cell-based, Plasmodium falciparum; details: Plasmodium falciparum, Erythrocyte
Source text: (§1) Compounds of the invention can be assayed to measure their capacity to inhibit proliferation of parasitemia in infected red blood cells. The proliferation is quantified by the addition of SYBR Green I (INVITROGEN)® dye which has a high affinity for double stranded DNA.

3D7 P. falciparum strain = test: parasite proliferation assay in infected red blood cells (SYBR Green I); format: cell-based, Plasmodium falciparum; details: Plasmodium falciparum, 3D7, Erythrocyte, 3D7 strain; read-out: EC50 3D7 strain
How it was run: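 P. falciparum 3D7 grown in O+ human erythrocytes to 3–8% parasitemia and exposed to compounds. Proliferation read as the increase in parasite DNA. Detection used SYBR Green I in saponin/triton-X/EDTA lysis buffer, with overnight lysis at room temperature.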

[2] = tested on: Trypanosoma brucei Lister 427 strain; test: Trypanosoma brucei proliferation assay (Cell Titer Glo); format: cell-based; details: Lister 427 bloodstream form, 48 hours, read-out: EC50, proliferation of T. brucei
Source text: Compounds of the invention can be assayed to measure their capacity to inhibit proliferation of kinetoplastid parasite Trypanosoma brucei. The proliferation is quantified by the addition of Cell Titer Glo (Promega®) a luminescent cell viability assay that measures the number of viable cells in culture based on the quantification of cellular ATP amount, which is an indicator of metabolically active cells.
The following assay illustrates the invention without in any way limiting the scope of the invention. This parasite proliferation assay measures the increase in parasite growth using an assay that measures ATP activity, Cell Titer Glo®.
Trypanosoma brucei Lister 427 strain is grown in HMI-9 Trypanosome media for T. brucei bloodstream form. 30 μl of HMI-9 media is dispensed into 384 well assay plates. 200 nl of compounds of the invention (in DMSO), including anti-trypanosome controls (Pentamidine and suramin), are then transferred into the assay plates, as well as DMSO alone to serve as a negative control for inhibition. Then 25 μl of a suspension of T. brucei culture in HMI-9 media is dispensed into the assay plates. The final concentration of parasites in culture corresponds to 1.7% of 0.5 uM ATP activity with Cell Titer Glo® in HMI-9 media. […] The plates are then read for luminescence.

[3] = molecular target: mitogen-activated protein kinase-activated protein kinase 2 (MapKap2 or MK-2) (Homo sapiens, UniProt P49137); test: MK-2 enzyme inhibition, single point concentration; format: biochemical
[4] = molecular target: cannabinoid receptor 1 (CB1) (Homo sapiens, UniProt P21554); test: cannabinoid receptor 1 (CB1) IC50; format: binding; details: read-out: IC50 against CB1
NF54 = test: parasite proliferation assay in infected red blood cells (SYBR Green I), NF54 strain; format: cell-based; details: Plasmodium falciparum, 3D7 / NF54, Erythrocyte; cell marked (NF54): NF54 strain instead of 3D7; read-out: EC50 (NF54), printed in the 3D7 strain column
Source text: as §1

W2 strain [5] = test: parasite proliferation assay in infected red blood cells (SYBR Green I), W2 strain; format: cell-based; details: Erythrocyte
Source text: as §1

Sequence of cannabinoid receptor 1 (CB1) (P21554 whole entry, species assumed): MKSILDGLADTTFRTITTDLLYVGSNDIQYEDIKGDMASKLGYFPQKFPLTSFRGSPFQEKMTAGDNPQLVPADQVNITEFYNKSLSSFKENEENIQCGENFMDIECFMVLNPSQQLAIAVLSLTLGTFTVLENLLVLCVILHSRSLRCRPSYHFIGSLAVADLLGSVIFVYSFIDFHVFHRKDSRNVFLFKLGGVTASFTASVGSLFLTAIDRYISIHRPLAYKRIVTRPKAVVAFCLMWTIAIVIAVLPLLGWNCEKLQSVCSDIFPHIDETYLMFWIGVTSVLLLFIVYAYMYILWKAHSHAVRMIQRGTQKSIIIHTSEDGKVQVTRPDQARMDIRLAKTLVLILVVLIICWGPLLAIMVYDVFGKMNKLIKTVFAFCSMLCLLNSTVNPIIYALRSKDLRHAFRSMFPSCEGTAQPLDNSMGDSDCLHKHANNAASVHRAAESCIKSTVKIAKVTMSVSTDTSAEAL
Sequence of mitogen-activated protein kinase-activated protein kinase 2 (MapKap2 or MK-2) (P49137 whole entry): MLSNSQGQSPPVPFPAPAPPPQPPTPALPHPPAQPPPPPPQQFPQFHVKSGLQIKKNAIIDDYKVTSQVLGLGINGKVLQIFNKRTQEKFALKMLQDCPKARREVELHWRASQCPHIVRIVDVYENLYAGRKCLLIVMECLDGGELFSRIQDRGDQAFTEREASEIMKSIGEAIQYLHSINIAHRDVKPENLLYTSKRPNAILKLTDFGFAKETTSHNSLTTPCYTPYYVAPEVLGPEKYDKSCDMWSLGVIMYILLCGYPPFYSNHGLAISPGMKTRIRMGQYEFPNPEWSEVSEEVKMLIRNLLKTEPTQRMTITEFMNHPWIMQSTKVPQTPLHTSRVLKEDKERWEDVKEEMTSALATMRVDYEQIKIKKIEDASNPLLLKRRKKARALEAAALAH

| Compound | EC50 (W2 strain [1]) [nM] | EC50 (3D7 P. falciparum strain) [nM] | EC50 (NF54) [nM] | further results |
| --- | --- | --- | --- | --- |
| CC1(C)c2nc(-c3ccc(F)cc3)c(Nc3ccc(F)cc3)n2CCN1C(=O)CN [example 412, 2-amino-1-(2-(4-fluorophenyl)-3-(4-fluorophenylamino)-8,8-dimethyl-5,6-dihydroimidazo[1,2-a]pyrazin-7(8H)-yl)ethanone] | 6 | 10 | – | EC50 [2]: 10000 nM; inhibition of MK-2 [3]: 7%; IC50 [4]: 24000 nM |
| CC1(C)c2nc(-c3ccc(F)cc3)c(Nc3ccc(F)cc3)n2CC(=O)N1CCO [Compound 688] | – | – | 106 | EC50 (W2 strain [5]; Plasmodium falciparum): 134 nM |
| CC1(C)c2nc(-c3ccc(F)cc3)c(Nc3ccc(F)cc3)n2CCN1C(=O)CNC(=O)CCC1=[N+]2C(=Cc3ccc(-c4ccccc4)n3[B-]2(F)F)C=C1 [Compound 731] | – | – | 2270 | EC50 (W2 strain [5]; Plasmodium falciparum): 5610 nM |
| CC(C)(N)C(=O)N1CCn2c(nc(-c3ccc(F)cc3)c2Nc2ccc(F)c(F)c2)C1 [Example 29, 2-amino-1-(3-(3,4-difluorophenylamino)-2-(4-fluorophenyl)-5,6-dihydroimidazo[1,2-a]pyrazin-7(8H)-yl)-2-methylpropan-1-one] | – | 30 | – | EC50 [2]: 7000 nM; inhibition of MK-2 [3]: 15%; EC50 (W2 strain [5]): 36 nM; IC50 [4]: > 30000 nM |
| CC1(C)c2nc(-c3ccc(F)cc3)c(CC3CCCCC3)n2CCN1C(=O)CN [Compound 699] | – | – | 678 | – |
| CC1(C)c2nc(-c3ccc(F)cc3)c(Nc3ccc(F)cc3)n2CC(=O)N1CCN [Compound 687, 7-(2-aminoethyl)-2-(4-fluorophenyl)-3-(4-fluorophenylamino)-8,8-dimethyl-7,8-dihydroimidazo[1,2-a]pyrazin-6(5H)-one] | – | – | 3420 | EC50 (W2 strain [5]; Plasmodium falciparum): 3350 nM |
| Cc1ccc(S(=O)(=O)c2c(-c3ccc(F)cc3)nc3n2CCN(C(=O)CN)C3(C)C)cc1 [Compound 725] | – | – | 5210 | – |
| Cc1cc(Oc2c(-c3ccc(F)cc3)nc3n2CCN(C(=O)CN)C3(C)C)ccc1F [Compound 712] | – | – | 19 | – |
| COc1ccc(-c2ccc3n2[B-](F)(F)[N+]2=C(C)C(CCC(=O)NCCCCCC(=O)NCC(=O)N4CCn5c(nc(-c6ccc(F)cc6)c5Nc5ccc(F)cc5)C4(C)C)=C(C)C2=C3)cc1 [Compound 732] | – | – | 1220 | EC50 (W2 strain [5]; Plasmodium falciparum): 1440 nM |
| CC1(C)c2nc(-c3ccc(F)cc3)c(Oc3ccc(F)c(F)c3)n2CCN1C(=O)CN [Compound 711] | – | – | 34 | – |
| CC1(C)c2nc(-c3ccc(F)cc3)c(Oc3ccc(Cl)cc3)n2CCN1C(=O)CN [Compound 710] | – | – | 28 | – |
| Cc1cc(Nc2c(-c3ccc(F)cc3)nc3n2CCN(C(=O)C(C)(C)N)C3(C)C)ccc1F [Compound 588] | 4 | 10 | – | – |
| CC(C)(C)[C@H](N)C(=O)N1CCn2c(nc(-c3ccc(F)cc3)c2Nc2ccc(Cl)cc2)C1 [Compound 463] | 24 | 40 | – | – |
| Cc1ccc(Nc2c(-c3ccc(F)c(F)c3)nc3n2CCN(C(=O)[C@H](C)N)C3)cc1 [Compound 406] | 40 | 60 | – | – |
| CC(C)[C@H](O)C(=O)N1CCn2c(nc(-c3ccc(F)cc3)c2Nc2ccc(Cl)cc2)C1 [Compound 455] | 8 | 10 | – | – |
| Cc1ccc(Nc2c(-c3ccc(F)cc3)nc3n2CCN(C(=O)C(C)Nc2ccc(C)cc2)C3)cc1 (stereo not drawn) [Compound 407] | 523 | 710 | – | – |
| C[C@H](N)C(=O)N1CCn2c(nc(-c3ccc(F)cc3)c2Nc2ccc(F)c(F)c2)C1 [Compound 435] | 98 | 50 | – | – |
| Cc1ccc(Nc2c(-c3cccc(F)c3)nc3n2C(C)(C)CN(C(=O)C(C)(C)N)C3)cc1 [Compound 593] | 3940 | 5060 | – | – |
| CC1(C)NC(=O)Cn2c1nc(-c1ccc(F)cc1)c2Nc1ccc(F)cc1 [Compound 512] | 165 | 190 | – | – |
